From patent publication US11976075B2, “Inhibitors of the MYST family of lysine acetyl transferases” (Isosterix, Inc., priority 2022, dated 2024) come the findings set out here.

A value given as a limit tells only on which side of the number the result lay.

The IC50 is the concentration that inhibits the measured activity by half.

The experiment has as its target T1, Recombinant KAT6A/MOZ (488-778) protein (Homo sapiens, UniProt Q92794).
T1 construct: Recombinant KAT6A/MOZ (488-778) protein (Active motif, Catalog #81223); purchased Active Motif 81223
Kind of experiment: Kat6a AlphaLISA Inhibition Screening Assay. In kind it is biochemical. The conditions noted are these: 60′ pre-incubation; Table 2; read-out: Kat6A biochemical assay: IC50. The procedure:
The Kat6a inhibitory activity of test compounds was determined using an Alpha Screen-based detection method. The assay reactions were conducted in a volume of 10 μL in Alpha Plate, White 384 well plate (cat #6008280, Perkin Elmer). The enzymatic reactions were performed in assay buffer pH 8.0 (50 mM Tris-HCl, 0.1 mM EDTA, 0.01% Tween-20, 1 mM Dithiothreitol, 0.1% BSA (fatty acid free) and 330 nM TSA (Trichostatin A)). 10 μL reaction volume consisting of 25 nM of Recombinant KAT6A/MOZ (488-778) protein (Active motif, Catalog #81223), 400 nM Acetyl coenzyme A (Catalog #A2056, Sigma), 200 nM of Histone H3 peptide [(amino acids 1-21), biotin-labeled (BPS Biosciences, Catalog #52011,)] and a 10-point dose response curve for test/tool compounds were prepared. Enzyme and compounds solution were pre-incubated in assay plate for 60 or 10 min at room temperature then substrate and Acetyl coenzyme A solution were added to the plate. After addition, the plate was sealed with adhesive seals and incubated for 120 minutes at room temperature.
After 120 minutes of incubation, 5 μL (10 μg/mL) of AlphaLISA anti-acetyl-Lysine acceptor beads (Perkin Elmer, Catalog #AL143C) were added to the plate and it was incubated for 60 minutes at room temperature. Then 10 μL (10 μg/mL) of Alpha Streptavidin donor beads (Perkin Elmer, Catalog #6760002S) were added to the plate which was further incubated for 60 minutes at room temperature. After incubation, the alpha signal was recorded by using Perkin Elmer Envision multi-mode reader.
NA means the compound was not active at the concentration tested. […] NT means not tested.
A general note: Bead proximity is the source of the signal in Alpha formats.

T1 sequence (Q92794 488-778): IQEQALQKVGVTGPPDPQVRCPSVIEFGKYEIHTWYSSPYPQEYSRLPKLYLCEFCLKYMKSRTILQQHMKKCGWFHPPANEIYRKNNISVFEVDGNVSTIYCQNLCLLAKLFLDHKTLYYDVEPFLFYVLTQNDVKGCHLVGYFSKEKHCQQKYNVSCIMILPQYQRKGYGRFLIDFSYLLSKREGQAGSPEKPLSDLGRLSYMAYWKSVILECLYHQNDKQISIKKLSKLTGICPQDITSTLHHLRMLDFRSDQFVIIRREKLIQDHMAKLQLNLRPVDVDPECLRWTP

With `C=CC(=O)N1CCC(c2ccnc(-c3cc(C)cc(C(=O)NNS(=O)(=O)c4ccccc4F)c3)c2)CC1` [Synthetic Example 41, N-(3-(4-(1-acryloylpiperidin-4-yl)pyridin-2-yl)-5-methylbenzoyl)-2-fluorobenzenesulfonohydrazide], the IC50 was at most 10 µM. For `C=CS(=O)(=O)N1CCC(c2ccnc(-c3cc(C)cc(C(=O)NNS(=O)(=O)c4ccccc4F)c3)c2)CC1` [Synthetic Example 42, 2-fluoro-N′-(3-methyl-5-(4-(1-(vinylsulfonyl)piperidin-4-yl)pyridin-2-yl)benzoyl)benzenesulfonohydrazide], the half-inhibitory concentration (IC50) is at most 10 µM.

Consider `C#CC(=O)N1C[C@H]2CN(Cc3cc(OC)c4c(NS(=O)(=O)c5ccccc5OC)noc4c3)C[C@H]2C1` [Synthetic Example 44, 2-methoxy-N-(4-methoxy-6-(((3aR,6aS)-5-propioloylhexahydropyrrolo[3,4-c]pyrrol-2(1H)-yl)methyl)benzo[d]isoxazol-3-yl)benzenesulfonamide], for which the half-maximal inhibitory concentration (IC50) was at most 10 µM. For the molecule `C#CC(=O)N(C)Cc1cnn(Cc2cc(OC)c3c(NS(=O)(=O)c4ccccc4OC)noc3c2)c1` [Synthetic Example 45, N-((1-((4-methoxy-3-((2-methoxyphenyl)sulfonamido)benzo[d]isoxazol-6-yl)methyl)-1H-pyrazol-4-yl)methyl)-N-methylpropiolamide], the IC50 was at most 10 µM. Regarding `C#CC(=O)NCc1cnn(Cc2cc(OC)c3c(NS(=O)(=O)c4ccc(C(=O)NC)cc4OC)noc3c2)c1` [Synthetic Example 46, 3-methoxy-4-(N-(4-methoxy-6-((4-(propiolamidomethyl)-1H-pyrazol-1-yl)methyl)benzo[d]isoxazol-3-yl)sulfamoyl)-N-methylbenzamide], the IC50 is at most 10 µM.

For the molecule `C=CC(=O)N(C)Cc1cnn(Cc2cc(OC)c3c(NS(=O)(=O)c4ccccc4OC)noc3c2)c1` [Synthetic Example 47, N-((1-((4-methoxy-3-((2-methoxyphenyl)sulfonamido)benzo[d]isoxazol-6-yl)methyl)-1H-pyrazol-4-yl)methyl)-N-methylacrylamide], the IC50 is at most 10 µM.

With `C#CC(=O)NC1CCN(Cc2cc(OC)c3c(NS(=O)(=O)c4ccccc4OC)noc3c2)C1` (stereo not drawn) [Synthetic Example 48, N-(1-((4-methoxy-3-((2-methoxyphenyl)sulfonamido)benzo[d]isoxazol-6-yl)methyl)pyrrolidin-3-yl)propiolamide], the half-maximal inhibitory concentration (IC50) was at most 10 µM. As for `C=CC(=O)NC1CCN(Cc2cc(OC)c3c(NS(=O)(=O)c4ccccc4OC)noc3c2)CC1` [Synthetic Example 49, N-(1-((4-methoxy-3-((2-methoxyphenyl)sulfonamido)benzo[d]isoxazol-6-yl)methyl)piperidin-4-yl)acrylamide], the IC50 is at most 10 µM.

As to `C=CC(=O)N1C[C@H]2CN(Cc3cc(OC)c4c(NS(=O)(=O)c5ccccc5OC)noc4c3)C[C@H]2C1` [Synthetic Example 50, N-(6-(((3aR,6aS)-5-acryloylhexahydropyrrolo[3,4-c]pyrrol-2(1H)-yl)methyl)-4-methoxybenzo[d]isoxazol-3-yl)-2-methoxybenzenesulfonamide], the half-inhibitory concentration (IC50) is at most 10 µM.

In the case of `C=CC(=O)NCc1cnn(Cc2cc(OC)c3c(NS(=O)(=O)c4ccccc4OC)noc3c2)c1` [Synthetic Example 51, N-((1-((4-methoxy-3-((2-methoxyphenyl)sulfonamido)benzo[d]isoxazol-6-yl)methyl)-1H-pyrazol-4-yl)methyl)acrylamide], the half-inhibitory concentration (IC50) was at most 10 µM. In the case of `C#CC(=O)NCc1cnn(Cc2cc(OC)c3c(NS(=O)(=O)c4cccc(C(=O)NC)c4)noc3c2)c1` [Synthetic Example 52, 3-(N-(4-methoxy-6-((4-(propiolamidomethyl)-1H-pyrazol-1-yl)methyl)benzo[d]isoxazol-3-yl)sulfonyl)-N-methylbenzamide], the IC50 is at most 10 µM. As for `COc1ccccc1S(=O)(=O)Nc1noc2cc(Cn3cc(CNC(=O)C#CCO)cn3)cc(OC)c12` [Synthetic Example 53, 4-hydroxy-N-((1-((4-methoxy-3-((2-methoxyphenyl)sulfonamido)benzo[d]isoxazol-6-yl)methyl)-1H-pyrazol-4-yl)methyl) but-2-ynamide], the IC50 was at most 10 µM. For the molecule `COC/C=C/C(=O)NCc1cnn(Cc2cc(OC)c3c(NS(=O)(=O)c4ccccc4OC)noc3c2)c1` [Synthetic Example 54, (E)-4-methoxy-N-((1-((4-methoxy-3-((2-methoxyphenyl)sulfonamido)benzo[d]isoxazol-6-yl)methyl)-1H-pyrazol-4-yl)methyl)but-2-enamide], the IC50 was at most 10 µM. Turning to `C#CC(=O)NCc1ccnc(-c2cc(C)cc(C(=O)NNS(=O)(=O)c3cccc(C(=O)NC)c3)c2)c1` [Synthetic Example 55, N-methyl-3-[[[3-methyl-5-[4-[(prop-2-ynoylamino)methyl]-2-pyridyl]benzoyl]amino]sulfamoyl] benzamide], the IC50 is at most 10 µM. `C=CC(=O)N1CCN(c2cccc(-c3cc(OC)c4c(NS(=O)(=O)c5c(OC)cccc5OC)noc4c3)c2)CC1` [Synthetic Example 56, N-(6-(3-(4-acryloylpiperazin-1-yl)phenyl)-4-methoxybenzo[d]isoxazol-3-yl)-2,6-dimethoxybenzenesulfonamide]: the 50% inhibitory concentration (IC50) is at most 10 µM. Take `CC#CC(=O)NCc1cnn(Cc2cc(OC)c3c(NS(=O)(=O)c4ccccc4OC)noc3c2)c1` [Synthetic Example 57, N-[[1-[[4-methoxy-3-[(2-methoxyphenyl)sulfonylamino]-1,2-benzoxazol-6-yl]methyl]pyrazol-4-yl]methyl] but-2-ynamide]: the half-maximal inhibitory concentration (IC50) is at most 10 µM.

In the case of `C=CC(=O)N1CCN(c2ccccc2-c2cc(OC)c3c(NS(=O)(=O)c4c(OC)cccc4OC)noc3c2)CC1` [Synthetic Example 58, N-(6-(2-(4-acryloylpiperazin-1-yl)phenyl)-4-methoxybenzo[d]isoxazol-3-yl)-2,6-dimethoxybenzenesulfonamide], the half-inhibitory concentration (IC50) was at most 10 µM. With `C=CS(=O)(=O)N1C[C@H]2CN(Cc3cc(OC)c4c(NS(=O)(=O)c5ccccc5OC)noc4c3)C[C@H]2C1` [Synthetic Example 59], the half-maximal inhibitory concentration (IC50) is at most 10 µM. Under `C#CC(=O)NCC(=O)NCc1cnn(Cc2cc(OC)c3c(NS(=O)(=O)c4ccccc4OC)noc3c2)c1` [Synthetic Example 60, N-(2-(((1-((4-methoxy-3-((2-methoxyphenyl)sulfonamido)benzo[d]isoxazol-6-yl)methyl)-1H-pyrazol-4-yl)methyl)amino)-2-oxoethyl)propiolamide] stands at most 10 µM. Consider `C=CC(=O)NCC(=O)NCc1cnn(Cc2cc(OC)c3c(NS(=O)(=O)c4ccccc4OC)noc3c2)c1` [Synthetic Example 61, N-[2-[[1-[[4-methoxy-3-[(2-methoxyphenyl)sulfonylamino]-1,2-benzoxazol-6-yl]methyl]pyrazol-4-yl]methylamino]-2-oxo-ethyl]prop-2-enamide], for which the IC50 was at most 10 µM. Under `COc1ccccc1S(=O)(=O)Nc1noc2cc(Cn3cc(C(=O)NCC#N)cn3)cc(OC)c12` [Synthetic Example 62, N-(cyanomethyl)-1-((4-methoxy-3-((2-methoxyphenyl)sulfonamido)benzo[d]isoxazol-6-yl)methyl)-1H-pyrazole-4-carboxamide] stands at most 10 µM; under `COc1ccccc1S(=O)(=O)Nc1noc2cc(CN3CCC(C(=O)NCC#N)CC3)cc(OC)c12` [Synthetic Example 63, N-(cyanomethyl)-1-((4-methoxy-3-((2-methoxyphenyl)sulfonamido)benzo[d]isoxazol-6-yl)methyl)piperidine-4-carboxamide], over 10 µM.

Take `C#CC(=O)NC1CCN(Cc2cc(OC)c3c(NS(=O)(=O)c4ccccc4OC)noc3c2)CC1` [Synthetic Example 64]: the IC50 was at most 10 µM. Turning to `C#CC(=O)NCc1cnn(Cc2cc(OC)c3c(NS(=O)(=O)c4ccc(C(=O)O)cc4OC)noc3c2)c1` [Synthetic Example 65, 3-methoxy-4-(N-(4-methoxy-6-((4-(propiolamidomethyl)-1H-pyrazol-1-yl)methyl)benzo[d]isoxazol-3-yl)sulfamoyl)benzoic acid], the concentration for half-maximal inhibition (IC50) was at most 10 µM. As for `C#CC(=O)NCc1cnn(Cc2cc(OC)n3c(NS(=O)(=O)c4ccccc4OC)nnc3c2)c1` [Synthetic Example 66, N-((1-((5-methoxy-3-((2-methoxyphenyl)sulfonamido)-[1,2,4]triazolo[4,3-a]pyridin-7-yl)methyl)-1H-pyrazol-4-yl)methyl)propiolamide], the 50% inhibitory concentration (IC50) was at most 10 µM. Take `COc1ccccc1S(=O)(=O)Nc1noc2cc(CN3CCC(C(=O)NCC#N)C3)cc(OC)c12` (stereo not drawn) [Synthetic Example 67, N-(cyanomethyl)-1-((4-methoxy-3-((2-methoxyphenyl)sulfonamido)benzo[d]isoxazol-6-yl)methyl) pyrrolidine-3-carboxamide]: the IC50 was over 10 µM. As to `C#CC(=O)NCc1cnn(Cc2cc(OC)c3c(NS(=O)(=O)CC4CCCCC4)noc3c2)c1` [compound 5], the IC50 is at most 10 µM.
